{"source": "patent US20070292403A1", "about": "“Methods of treating a neurological disorder with creatine monohydrate” (priority 2006, published 2007)", "key": {"[1]": {"system": "subjects with early Parkinson's disease (PD)", "assay": "Example 2: safety and tolerability in the early Parkinson's disease trial", "type": "in vivo, human", "conditions": "human, in vivo", "protocol": "Study Design and Randomization. This example was a single arm futility study designed to assess creatine and minocycline. A placebo arm for calibration was included in the example. Eligible subjects were randomly assigned in a 1:1:1 fashion to receive 1) 10 g/day of creatine monohydrate and placebo minocycline, 2) placebo creatine monohydrate and 200 mg/day of minocycline, or 3) placebo creatine monohydrate and placebo minocycline. The primary futility analysis was at 12 months of follow-up, but each subject was followed for 18 months for additional safety information. Subjects and investigators were kept blinded to treatment group.\nDosages. Creatine was administered as 5 g sachets mixed with 8 ounces of liquid taken twice a day and minocycline was administered as 100 mg capsules taken twice a day. Both were taken with meals.\nOutcome measures. The primary, prespecified outcome measure was the change in the total Unified PD Rating Scale (UPDRS) score from baseline to either the time at which there was sufficient disability to warrant symptomatic therapy for PD or 12 months, whichever came first. Disability was assessed by the sight investigator, based on impairment in ambulation, activities in daily living, and occupational status. The mean change in total UPDRS for each treatment group was compared to a prespecified futility threshold of a 30% reduction in the historically derived change in the total UPDRS, which was based on a placebo arm of a previous clinical trial. Tolerability was defined as the proportion of subjects taking study drug for the full 12 months. All […] adverse events (SAEs) were reviewed by the study medical monitor and an independent medical monitor. Both the site investigator and medical monitors assessed the potential relationship between SAEs and study drug.\nStudy Procedures. At the screening visit, the purpose and potential risks were explained to potential subjects and each subject gave written consent. […] Blood was obtained for serum chemistry and complete blood count. Participants were reevaluated at 1, 3, 6, 9, and 12 months (±6 days) after the baseline visit using the battery of clinical scales and blood was drawn again at 6 and 12 months."}, "[2]": {"design": "species or system human", "conditions": "in vivo", "protocol": "(§1) A two-phase open-label study was conducted to better determine an optimal dose of creatine symptomatic subjects with Huntington's disease. A dose-escalation study (10-40 grams per day) was conducted to determine the maximally tolerated dose (MTD) followed by a de-escalation phase to assess whether brain and serum levels of creatine might be maximal at doses lower than the MTD. Ten subjects were enrolled and followed prospectively for two weeks at each done level increasing in 5-gram increments during dose escalation that lasted 13 weeks. Assessments at each visit included UHDRS, EKG, vital signs, clinical safety and research labs. MRI spectroscopy was conducted prior to baseline at peak done (40 grams) and one month after de-escalation to either 30 or 15 grams daily. To determine an optimal dose, pharmacokinetic as well as clinical data were considered. Once the maximal dose was reached, subjects were assigned one of two lower doses previously taking (15 grams a day (n=5) or 30 grams a day (n=5)). Serum creatine was assessed at baseline, at the end of each 2-week dose escalation step and at the end of the de-escalation phase to assess the correspondence between serum and brain levels of creatine at steady state."}, "[3]": {"system": "serum 8OH2′dG", "assay": "Example 3: serum 8OH2'dG suppression in dose escalation", "type": "in vivo, human", "protocol": "as §1"}, "[4]": {"system": "subjects with Huntington's disease", "assay": "Example 1: tolerability, safety and clinical (UHDRS) measures of creatine 8 g/day in Huntington's disease, randomized placebo-controlled", "type": "in vivo, human", "design": "Serum creatinine: unit: mg/dL", "conditions": "for Serious adverse events / Study withdrawal before week 24: monohydrate", "protocol": "Study design. Sixty-four subjects were enrolled at four sites. Eligible subjects were randomized to 8 g/day of creatine monohydrate or placebo by computer-generated blocked randomization with site stratification. Treatment was administered as chewable wafers twice daily for 16 weeks. A medical monitor and independent safety committee reviewed clinical data monthly. Consent, study procedures, and case report forms were approved by the institutional review board at each site. Blood samples for analysis of serum biomarkers were obtained with consent from 30 age-appropriate individuals without neurological illnesses.\nEligibility criteria. Eligible subjects were 18 years of age and older with a diagnosis of Huntington's disease confirmed by genetic testing, a total functional capacity score of ≧5, and a caregiver to witness consent and monitor compliance. Exclusion criteria included previous creatine exposure within 30 days of baseline; underlying hematological, hepatic, or renal disease; screening white blood cell count <3,800/mm^3; creatinine >2.0 mg/dL or alanine aminotransferase greater than twice the upper normal limit; or unstable medical/psychiatric illness.\n(§2) Study protocol. Subjects were screened within 25 days of randomization (baseline visit). Screening included assessment of eligibility criteria, medical history, physical examination, Unified Huntington's Disease Rating Scale (UHDRS), EKG, DNA analysis, complete blood count, chemistry panel, and urinalysis. Subjects were on study drug (creatine or placebo) for 16 weeks, followed by an 8-week washout. Study visits occurred at baseline, weeks 8, 16, and 24 with telephone contacts at weeks 1, 10 and 20. Physical examination was done at screening and week 16. UHDRS scores, vital signs, adverse event assessment, and safety laboratory tests were repeated at all visits. Blood was collected for serum creatine levels and serum 8-hydroxy-2′-deoxyguanosine (8OH2′dG), a measure of oxidative injury affecting DNA. The later was analyzed in the samples from two sites. Magnetic resonance spectroscopy (MRS; STEAM; TR/TE=6000/20 milliseconds) of frontal cortex (voxel size=56 cc) and occipital cortex (voxel size=18 cc) performed at one site was analyzed for this report. Subject compliance was assessed by wafer counts.\nStatistical analysis. The primary outcome measure was tolerability. […] Within 27 subjects per group, there was a 94% power to detect an absolute difference of 50% or more between the placebo group and the active treatment group assuming a 15% dropout rate. In accordance with intent to treat, all randomized subjects were included in safety and tolerability analysis. Tolerability was assessed by comparing the proportion of treatment failures in creatine and placebo groups using χ^2 test with continuity correction. As the primary interest was in detecting intolerability in the active group, a one-sided test was used (significance=0.05). This was also applied to assess adverse events and laboratory abnormalities. The laboratory score changes from screening were analyzed by repeated-measures analysis of variance (ANOVA), and the differences between visits were analyzed by paired t test. Demographic and baseline variables were summarized for each group, and comparisons made using Fischer's exact test and continuous variables were compared using t test. Changes in UHDRS motor, cognitive, behavioral, and functional component subscores were measured at baseline and weeks 8, 16, and 24 and analyzed by mixed-model ANOVA."}, "[5]": {"system": "serum 8-hydroxy-2′-deoxyguanosine (8OH2′dG)", "assay": "Example 1: serum 8OH2'dG biomarker of oxidative injury to DNA", "type": "in vivo, human", "conditions": "baseline to 16 weeks, 8 g/day; SD=13.93; placebo increase 5.87; p<0.0042", "source_text": "as §2"}, "[6]": {"conditions": "8 g/day, n = 32, frequency, listed as creatine"}, "[7]": {"conditions": "adverse event frequency, 8 g/day, n = 32"}}}
{"smiles": "CN(CC(=O)O)C(=N)N", "note": "[Creatine, creatine monohydrate]", "values": [{"measurement": "Patients with dose reductions", "setting": "[1]", "result": 8}, {"measurement": "Dose at which serum creatine levels reached a plateau", "setting": "[2]; human", "result": "30-35 grams/day"}, {"measurement": "Brain levels of creatine in the frontal cortex by MRI spectroscopy", "setting": "[2]", "result": "continued increases"}, {"measurement": "Doses associated with maximum suppression of serum 8OH2′dG, levels similar to normal controls", "setting": "[3]", "result": "greater than 25 grams daily"}, {"measurement": "Serum 8OH2′dG", "setting": "[3]; greater than seen with 8 grams per day", "result": "dose dependent suppression"}, {"measurement": "Laboratory abnormalities", "setting": "[4]; 8 g/day", "result": "mild reversible serum creatinine and alkaline phosphatase elevations"}, {"measurement": "Tolerability", "setting": "[4]; 8 g/day, chewable wafers twice daily, 16 weeks", "result": "well tolerated"}, {"measurement": "All adverse events: mild, moderate and severe, (%)", "setting": "[4]; 8 g/day, n = 32", "result": 86.9, "unit": "%"}, {"measurement": "All adverse events: mild, moderate and severe, no.", "setting": "[4]; 8 g/day, n = 32, frequency", "result": 26}, {"measurement": "Serious adverse events", "setting": "[4]; [6]", "result": "three"}, {"measurement": "Study withdrawal before week 24", "setting": "[4]; [6]", "result": "three"}, {"measurement": "Serious adverse events", "setting": "[4]; 8 g/day, n = 32, frequency", "result": 3}, {"measurement": "Study withdrawal before week 24", "setting": "[4]; 8 g/day, n = 32, frequency", "result": 2}, {"measurement": "Body mass index and UHDRS subscores compared with baseline", "setting": "[4]; 8 g/day, paired t test", "result": "did not change with treatment"}, {"measurement": "Apathy", "setting": "[4]; [7]", "result": 1}, {"measurement": "Cough", "setting": "[4]; [7]", "result": 1}, {"measurement": "Depression", "setting": "[4]; [7]", "result": 4}, {"measurement": "Dizziness", "setting": "[4]; [7]", "result": 1}, {"measurement": "Dysphagia", "setting": "[4]; [7]", "result": 1}, {"measurement": "Fall", "setting": "[4]; [7]", "result": 3}, {"measurement": "Hematuria", "setting": "[4]; [7]", "result": 1}, {"measurement": "Increased movements", "setting": "[4]; [7]", "result": 1}, {"measurement": "Irritability", "setting": "[4]; [7]", "result": 3}, {"measurement": "Lethargy", "setting": "[4]; [7]", "result": 2}, {"measurement": "Vomiting", "setting": "[4]; [7]", "result": 1}, {"measurement": "Serum creatinine", "setting": "[4]; creatine group by week 8, from 0.88±0.19, p<0.01, elevated at week 16, baseline at washout, in mg/dL (unit assumed)", "result": "1.04±0.24"}, {"measurement": "Average reduction of serum 8OH2′dG", "setting": "[5]", "result": 9.11, "unit": "pg/mL"}]}
